Laboratory results: paper PMC6805867, “Amphiphilic Triazine Polymer Derivatives as Antibacterial And Anti-atopic Agents in Mice Model” (Scientific Reports, 2019)

Experiments:
[1] = tested on: lymph node and spleen of AD-induced mice; test: DNCB-induced AD model, lymph node and spleen weight and size; assay type: in vivo, BALB/c mice; settings: for weight and size of spleen: compared to AD-induced mice, p < 0.05 for weight; for decrease in both weight and size of lymph node: compared to untreated AD-mice
Protocol: As described in our previous article, the 7-week-old female BALB/c mice were divided into seven groups (n = 8 per group): Control (Con) group, TZP3 200 μg/mL (TZP3) group, and TZP5 200 μg/mL (TZP5) group, DNCB-sensitized only (AD) group, DNCB-sensitized + TZP3 200 μg/mL (AD + TZP3) group, DNCB-sensitized + TZP5 200 μg/mL (AD + TZP5) group, DNCB-sensitized + Dermatop (Sanofi, Korea) 0.25% (AD + Dermatop) group. Dermatop was used as a positive control treatment. For the first induction of AD in the BALB/c mice, the backs of the mice were shaved and challenged with 200 μL of 1% 2,4-dinitrochlorobenzene(DNCB) in acetone/olive oil (3:1) one time (day−4). After 4 days from the induction, 0.5% DNCB was painted onto the backs of the mice every two days (day 2, 4, 6, 8, 10, 12, 14, 16 and 18). Concentrations of 200 μg/mL TZP3 or TZP5 in 20 μL of PBS were applied to the dorsal skin once daily for 18 days.

[2] = tested on: β-hexosaminidase release from RBL-2H3 cells; test: β-hexosaminidase release assay; assay type: cell-based, rat; settings: 500 μg/mL, 12 h treatment, A23187 1 μM 30 min, dose-dependent
Protocol: The β-hexosaminidase assay was performed as described previously with some modifications. Cells were treated with different concentrations of samples for 12 h. The treated cells were washed two times with PBS and stimulated with calcium ionophore A23187 (1 μM, final concentration) at 37 °C for 30 min. Aliquots (50 μL) of the supernatants were incubated with 50 μL of 1 mM 4-nitrophenyl-N-acetyl-β-D-glucosaminide in 0.1 M sodium citrate (pH 4.5) at 37 °C for 1 h. At the end of incubation, 250 μL of carbonate buffer containing 0.1 M Na2CO3 and 0.1 M NaHCO3 (pH 10) was added, and then the absorbance due to the formation of p-nitrophenol was measured at 410 nm. The supernatant from the non-stimulated cells was used as a blank while the supernatant from the stimulated cells with calcium ionophore A23187 alone was used as a control. The β-hexosaminidase release levels were calculated as a percentage compared to that of control: β-hexosaminidase release (%) = (absorbance of tested sample− absorbance of blank)/(absorbance of control-absorbance of blank) × 100.
(§1) Effect of TZP3 and TZP5 on TNF-α suppression
(§2) Therefore, the dimer TZP3 and trimer TZP5 were probed for their potential for inhibiting the TNF-α induced from RBL-2H3 cells in in vitro method.
(§3) Calcium ionophore A23187 and PMA induced the TNF-α secretion in RBL-2H3 cells, on the contrary, treatment of which with TZP3 and TZP5
Figure S1. […]

[3] = tested on: Multidrug-resistant Pseudomonas aeruginosa (MDRPA) (CCARM 2095); test: Chequerboard assay (synergy with clinically used antibiotics); assay type: cell-based; settings: for FICB: [B]/MICB; for FICI (fractional inhibitory concentration index): MDRPA CCARM 2095; for [B] (MIC of triazine polymer in combination): unit not given
Protocol: Briefly, 2-fold serial dilutions of each antibiotic and each polymer were prepared and added in a 1:1 volume ratio to the wells of a 96-well plate. An equal volume of bacterial solution (100 μL) at ∼10^6 CFU/mL was then seeded into each well. The plates were incubated in a shaking incubator at 37 °C and 200 rpm and read after 22 h. Bacterial growth was assessed visually or spectrophotometrically via OD600 readings taken by a microplate ELISA reader (Molecular Devices, Sunnyvale, CA, USA). The fractional inhibitory concentration index (FICI) for each drug combination was calculated using the following equation: FICI = FICA + FICB = [A]/MICA + [B]/MICB, where MICA and MICB are the MIC of antibiotic and triazine based monomer (TZP3 or TZP5), respectively, while [A] and [B] are the MIC of antibiotic and triazine based monomer (TZP3 or TZP5) in combination, respectively. FICI of ≤ 0.5 was interpreted as synergy, 0.5 < FICI ≤ 1.0 as additive, 1.0 < FICI ≤ 4.0 as indifferent, and a FICI > 4.0 as antagonism.

TNF-α in RBL-2H3 cells = test: Production of TNF-α induced by A23187 and PMA; assay type: cell-based, rat; settings: 1 μM A23187 and 80 nM PMA, 4 h
Protocol: The inhibition of TNF-α release induced by A23187 and PMA from the RBL-2H3 cells was assessed by using a previously reported method. The RBL-2H3 cells (2 × 10^5 cells/well) were cultured with 1 μM A23187 and 80 nM PMA for 4 h at 37 °C, after exposure to 0, 15.625, 31.25, 62.5, or 125 μg/mL 30 min of the TZP3 and TZP5. Next, the cells were used for RT-PCR.
as §1, §2, §3
Figure S1. Inhibitory effects of the TZP3 and TZP5 on A23187 and PMA-induced TNF-α induced from RBL-2H3 cells. […]

[4] = in combination with chloramphenicol
[5] = in combination with ciprofloxacin
[6] = combination with chloramphenicol

SMILES: NCCCN(CCCN)c1nc(N)nc(NCCNc2nc(Cl)nc(N(Cc3ccccc3)Cc3ccccc3)n2)n1 [TZP3]
- weight and size of spleen [1]: significant decrease
- decrease in both weight and size of lymph node [1]: more than 35%
- inhibition of β-hexosaminidase release [2]: maximum inhibitory effects
- FICB [3, 4]: 0.25
- FICB [3, 5]: 0.5
- FICB ([3]; in combination with oxacillin): 1.0
- Interaction [3, 6]: synergy (FICI of ≤ 0.5 was interpreted as synergy)
- FICI (fractional inhibitory concentration index) [3, 6]: 0.281
- Interaction ([3]; combination with ciprofloxacin): additive (0.5 < FICI ≤ 1.0 as additive)
- FICI (fractional inhibitory concentration index) ([3]; combination with ciprofloxacin): 0.75
- Interaction ([3]; combination with oxacillin): indifferent (1.0 < FICI ≤ 4.0 as indifferent)
- FICI (fractional inhibitory concentration index) ([3]; combination with oxacillin): 2.0
- [B] (MIC of triazine polymer in combination) [3, 4]: 4
- [B] (MIC of triazine polymer in combination) [3, 5]: 8
- [B] (MIC of triazine polymer in combination) ([3]; in combination with oxacillin): 16
- TNF-α suppression (TNF-α in RBL-2H3 cells; 15.6 μg/mL): ~10%
- TNF-α suppression (TNF-α in RBL-2H3 cells; 31.2 μg/mL): ~10%
- TNF-α suppression (TNF-α in RBL-2H3 cells; 62.5 μg/mL): approximately 70%
- TNF-α suppression (TNF-α in RBL-2H3 cells; 125 μg/mL): ~90%

SMILES: NCCCN(CCCN)c1nc(Cl)nc(NCCNc2nc(NCCNc3nc(N)nc(NCCC(c4ccccc4)c4ccccc4)n3)nc(N(CCCN)CCCN)n2)n1 [TZP5]
- weight and size of spleen [1]: significant decrease
- decrease in both weight and size of lymph node [1]: more than 35%
- inhibition of β-hexosaminidase release [2]: maximum inhibitory effects
- FICB [3, 4]: 0.25
- FICB [3, 5]: 0.25
- FICB ([3]; in combination with oxacillin): 1.0
- Interaction [3, 6]: synergy (FICI of ≤ 0.5 was interpreted as synergy)
- FICI (fractional inhibitory concentration index) [3, 6]: 0.281
- Interaction ([3]; combination with ciprofloxacin): synergy (FICI of ≤ 0.5 was interpreted as synergy)
- FICI (fractional inhibitory concentration index) ([3]; combination with ciprofloxacin): 0.5
- Interaction ([3]; combination with oxacillin): indifferent (1.0 < FICI ≤ 4.0 as indifferent)
- FICI (fractional inhibitory concentration index) ([3]; combination with oxacillin): 2.0
- [B] (MIC of triazine polymer in combination) [3, 4]: 4
- [B] (MIC of triazine polymer in combination) [3, 5]: 4
- [B] (MIC of triazine polymer in combination) ([3]; in combination with oxacillin): 16
- TNF-α suppression (TNF-α in RBL-2H3 cells; 15.6 μg/mL): didn’t show appreciable TNF-α suppressions
- TNF-α suppression (TNF-α in RBL-2H3 cells; 31.2 μg/mL): didn’t show appreciable TNF-α suppressions
- TNF-α suppression (TNF-α in RBL-2H3 cells; 62.5 μg/mL): dose-dependent manner
- TNF-α suppression (TNF-α in RBL-2H3 cells; 125 μg/mL): dose-dependent manner
